# Literature values, collected in patent US20210077514A1, “Nutraceutical Composition for Improving Overall Health” (priority 2019, published 2021).
# Read-outs that look alike come from different tables or passages of the source.
# Assays:
# [1] = 850 mg twice daily, mean follow-up ~3 years
# [2] = system: nematodes
# [3] = type 2 diabetes and mild to moderate depression
# [4] = mouse model
# [5] = system: diploid fibroblasts and mesenchymal stem cells
# [6] = 8-10 years after therapy
# [7] = after 3 years
# [8] = system: leukaemia cells
# [9] = system: glial cells
# [10] = aging mice, long-term treatment
# [11] = system: lipid peroxidation; settings: ethanol induced gastric ulcer rats and skin cancer rats; astaxanthin and its esters
# [12] = 0.08% astaxanthin fed, vs control group
# [13] = spontaneously hypertensive corpulent rats; mice on high fat plus high fructose diets
# [14] = young healthy adult female human subjects
# [15] = not given; remark: listed apart in the source
# [16] = compared to canthaxanthin and β-carotene
# [17] = system: superoxide dismutase, thioredoxin reductase, paraoxonase; settings: oxidative-induced rabbits, diet supplement
# [18] = diabetic mice vs control group
# [19] = system: MCF-7 breast cancer cells
# [20] = in vivo
# [21] = system: senescent cells; settings: H2O2-induced, via activation of AMPK pathway
# [22] = from the liver into the bile
# [23] = chronic heart failure patients
# [24] = patients with T2DM
# [25] = system: HepG2 cells; settings: HepG2 cells and primary hepatocytes
# [26] = system: adipocytes; settings: mouse, in vivo
# [27] = in vivo; remark: listed apart in the source
# [28] = aged mice
# [29] = not given; remark: listed apart in the source
# [30] = not given; remark: listed apart in the source
# [31] = FXN-KO mouse
# [32] = not given; remark: listed apart in the source
# [33] = AD-model mice
# [34] = aged mice, one week's treatment
# [35] = system: photoreceptor; settings: in vivo
# [36] = system: brain cell
compound,measurement,setting,value
CN(C)C(=N)N=C(N)N [metformin],reduction of incidence of T2DM compared to placebo,[1],31%
same,lifespan,[2],extends the lifespan of nematodes
same,depressive symptoms,[3],improved depressive symptoms
same,lifespan and health span,[4],extends both lifespan and health span
same,aging in human cells,[5]; chronic low-dose treatment,delays aging in human cells
same,expression of GPx7,"[5]; low-dose treatment, by activating Nrf2",upregulates the expression of endoplasmic reticulum-localized GPx7
same,"cognitive function, impact of long-term use",[6],did not show negative impact
same,"body weight, LDL-cholesterol, atherosclerosis progression",[7],"reductions in body weight, LDL-cholesterol"
same,carotid artery intima-media thickness (primary outcome),[7],no difference in the primary outcome
same,reduction of likelihood of CVD,otherwise healthy individuals,6%
same,reduction of likelihood of CVD,those at high cardiovascular risk,48%
same,reduction of likelihood of CVD,those at risk of frailty,18%
Oc1ccc(C=Cc2cc(O)cc(O)c2)cc1 [resveratrol],growth rate of leukaemia cells,[8],stop the growth rate of leukaemia cells
same,uptake of glutamate,[9],increase the uptake of glutamate
CC1=C(/C=C/C(C)=C/C=C/C(C)=C/C=C/C=C(C)/C=C/C=C(C)/C=C/C2=C(C)C(=O)[C@@H](O)CC2(C)C)C(C)(C)C[C@H](O)C1=O [astaxanthin],age-related oxidative stress and inflammatory response,[10],prevented the accumulation of age-related oxidative stress and inflammatory response
same,anti-lipid peroxidation activity,[11],80%
same,heart mitochondrial membrane potential and contractility index,[12],higher heart mitochondrial membrane potential and contractility index
same,insulin sensitivity,[13],Improved insulin sensitivity
same,DNA oxidative damage biomarker,[14],reduced the DNA oxidative damage biomarker
same,activity of natural killer cells,[15]; eight week supplementation,improved activity of natural killer cells
same,blood levels of astaxanthin,[15]; in vivo,increased blood levels of astaxanthin
same,antitumor activity,[16],significant antitumor activity
same,paraoxonase activity in serum,[17],inhibited
same,superoxide dismutase and thioredoxin reductase activity in serum,[17],enhanced activity of superoxide dismutase and thioredoxin reductase
same,urinary albumin level,[18],significantly lower than the control group
COc1ccc2cc3[n+](cc2c1OC)CCc1cc2c(cc1-3)OCO2 [berberine],proliferation of MCF-7 breast cancer cells,[19],inhibits the proliferation
same,"serum cholesterol, triglycerides and LDL-C",[20],"reduced serum cholesterol, triglycerides and LDL-C"
same,development of senescence,[21],significantly prevented the development of senescence
same,cholesterol excretion,[22],increases cholesterol excretion from the liver into the bile
same,frequency and complexity of ventricular premature complexes,[23],decreased the frequency and complexity of ventricular premature complexes
same,left ventricular ejection fraction,[23],increased the left ventricular ejection fraction
same,alanine and aspartate transaminase levels,[24],reduces alanine and aspartate transaminase levels
same,cholesterol and triglyceride synthesis,[25],inhibit cholesterol and triglyceride synthesis
same,adipocytes,[26],shrunk adipocytes
"NC(=O)c1ccc[n+]([C@@H]2O[C@H](COP(=O)([O-])O)[C@@H](O)[C@H]2O)c1 [Nicotinamide Mononucleotide, nicotinamide mononucleotide]",NAD+ levels within the heart,[27],increase the NAD+ levels within the heart
same,protection of heart from I/R injuries,[27],protect the heart from injuries of I/R
same,aortic stiffness,[28],normalizing the aortic stiffness
same,impaired tolerance of glucose,[29]; only one dose,sufficient in normalizing the impaired tolerance of the glucose
same,levels of NAD+,[29]; over sixty minutes,significant rises within the levels of NAD+
same,intolerance of glucose,[30]; in vivo,reversal of the intolerance of glucose
same,levels of NAD+,[30]; liver and muscle,significantly increased
same,cardiac function,[31],restored near the normal levels
same,homeostasis of mitochondria and biochemical markers of muscle-health,"[32]; 22 months old mice, to level of six months old mice",restore the homeostasis of mitochondria
same,age-related physiological declines,[32]; old mice,reduce the age-related physiological declines
same,cognition,[33],restore cognition within AD-model mice
same,cells after DNA damage repair,[34],indistinguishable from the cells of the young mice
same,degeneration of photoreceptor,[35],prevent degeneration of photoreceptor
same,death rate of brain cell,[36],lower the death rate of brain cell
